According to patent EP2526945A1, “New CRTH2 Antagonists” (Almirall, S.A., priority 2011, dated 2012):

Biological target: T1, CRTh2 receptor (Homo sapiens, UniProt Q9Y5Y4)
T1 construct: expressed in transfected cells; host or cells: CHO.K1 cells (membranes)
T1 sequence (Q9Y5Y4 1-395): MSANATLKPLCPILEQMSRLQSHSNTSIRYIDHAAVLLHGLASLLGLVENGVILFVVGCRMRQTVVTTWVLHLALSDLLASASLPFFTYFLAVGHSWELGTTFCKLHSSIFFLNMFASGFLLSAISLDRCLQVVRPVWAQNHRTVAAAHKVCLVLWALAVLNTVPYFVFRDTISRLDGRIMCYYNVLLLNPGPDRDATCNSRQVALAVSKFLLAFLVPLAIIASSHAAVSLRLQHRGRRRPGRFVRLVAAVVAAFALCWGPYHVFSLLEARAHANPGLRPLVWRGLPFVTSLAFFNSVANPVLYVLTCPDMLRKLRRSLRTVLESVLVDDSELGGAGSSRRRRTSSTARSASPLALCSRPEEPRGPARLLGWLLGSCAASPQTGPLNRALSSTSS
Assay: CRTh2 GTPγS antagonism binding assay
Assay type: biochemical
Conditions: membranes from CHO.K1 cells stably overexpressing the CRTh2 receptor; PGD2 at 50 nM (EC80); [35S]-GTPγS as radioligand; read-out: GTPγ Binding
Procedure: CRTh2 GTPγS antagonism binding assay
The assay is performed using membranes obtained from CHO.K1 cells stably overexpressing the CRTh2 receptor and [^35S]-GTPγS as radioligand. Assay is performed pre-incubating 4-8 µg of membranes per well with the compound to be tested for 1 h, followed by incubation with PGD2 at 50 nM (EC80), 0.1 nM [^35S]-GTPγS in incubation buffer (20 mM HEPES, 10 mM MgCl2, 100 mM NaCl, 10 µM GDP, 10 µg/ml Saponine and 0.2% BSA) for 2 h at room temperature. The reaction is terminated by filtering in GF/C plates pre-treated with 20 mM HEPES, 10 mM MgCl2, 100 mM NaCl and washing 6 times with wash buffer (20 mM NaH2PO4, 20 mM Na2HPO4). After washing, plates are dried and scintillation buffer Optiphase added. The radioactivity retained in the filter is counted using a Microbeta liquid scintillation counter.

Row | SMILES | IC50 [nM]
1 | Cc1c(Cc2ccccc2S(=O)(=O)C2CCCCC2)c2c(n1CC(=O)O)CCNC2=O [Example 23, {3-[2-(Cyclohexylsulfonyl)benzyl]-2-methyl-4-oxo-4,5,6,7-tetrahydro-1H-pyrrolo[3,2-c]pyridin-1-yl}acetic acid] | 27
2 | Cc1c(Cc2ccccc2S(=O)(=O)c2ccc(F)cc2)c2c(n1CC(=O)O)CC(C)(C)NC2=O [Example 60, (3-{2-[(4-Fluorophenyl)sulfonyl]benzyl}-2,6,6-trimethyl-4-oxo-4,5,6,7-tetrahydro-1 H-pyrrolo[3,2-c]pyridin-1-yl)acetic acid] | 5
3 | Cc1c(Cc2cc(F)ccc2S(=O)(=O)c2ccccc2)c2c(n1CC(=O)O)CCNC2=O [Example 37, {3-[5-Fluoro-2-(phenylsulfonyl)benzyl]-2-methyl-4-oxo-4,5,6,7-tetrahydro-1H-pyrrolo[3,2-c]pyridin-1-yl}acetic acid] | 3.7
4 | COc1ccc(S(=O)(=O)c2ccccc2Cc2c3c(n(CC(=O)O)c2C)CCNC3=O)cc1 [Example 15, (3-{2-[(4-Methoxyphenyl)sulfonyl]benzyl}-2-methyl-4-oxo-4,5,6,7-tetrahydro-1H-pyrrolo[3,2-c]pyridin-1-yl)acetic acid] | 3.9
5 | Cc1c(Cc2ccccc2S(=O)(=O)N2CCOCC2)c2c(n1CC(=O)O)CCNC2=O [Example 24, {2-Methyl-3-[2-(morpholin-4-ylsulfonyl)benzyl]-4-oxo-4,5,6,7-tetrahydro-1H-pyrrolo[3,2-c]pyridin-1-yl}acetic acid] | 20
6 | COc1cccc(S(=O)(=O)c2ccccc2Cc2c3c(n(CC(=O)O)c2C)CCNC3=O)c1 [Example 34, (3-{2-[(3-Methoxyphenyl)sulfonyl]benzyl}-2-methyl-4-oxo-4,5,6,7-tetrahydro-1H-pyrrolo[3,2-c]pyridin-1-yl)acetic acid] | 12
7 | Cc1c(Cc2ccccc2S(=O)(=O)c2ccc(F)cc2)c2c(n1CC(=O)O)CCNC2=O [Example 4, (3-{2-[(4-Fluorophenyl)sulfonyl]benzyl}-2-methyl-4-oxo-4,5,6,7-tetrahydro-1H-pyrrolo[3,2-c]pyridin-1-yl)acetic acid] | 3.2
8 | Cc1c(Cc2ccccc2S(=O)(=O)c2ccccc2)c2c(n1CC(=O)O)CC(C)(C)NC2=O [Example 58, {2,6,6-Trimethyl-4-oxo-3-[2-(phenylsulfonyl)benzyl]-4,5,6,7-tetrahydro-1H-pyrrolo[3,2-c]pyridin-1-yl}acetic acid] | 4.5
9 | COc1cccc(Cc2c3c(n(CC(=O)O)c2C)CCNC3=O)c1S(=O)(=O)c1ccccc1 [Example 21, {3-[3-Methoxy-2-(phenylsulfonyl)benzyl]-2-methyl-4-oxo-4,5,6,7-tetrahydro-1H-pyrrolo[3,2-c]pyridin-1-yl}acetic acid] | 20
10 | Cc1c(Cc2ccccc2S(=O)(=O)c2ccccc2)c2c(=O)[nH]ccc2n1CC(=O)O [Example 72, {2-Methyl-4-oxo-3-[2-(phenylsulfonyl)benzyl]-4,5-dihydro-1H-pyrrolo[3,2-c]pyridin-1-yl}acetic acid] | 8.6
11 | Cc1c(Cc2ccc(S(=O)(=O)Cc3ccccc3)cc2)c2c(n1CC(=O)O)CCNC2=O [Example 39, {3-[4-(Benzylsulfonyl)benzyl]-2-methyl-4-oxo-4,5,6,7-tetrahydro-1H-pyrrolo[3,2-c]pyridin-1-yl}acetic acid] | 2.9
12 | Cc1c(Cc2ccc(C(=O)O)cc2S(=O)(=O)c2ccccc2)c2c(n1CC(=O)O)CCNC2=O [Example 29, 4-{[1-(Carboxymethyl)-2-methyl-4-oxo-4,5,6,7-tetrahydro-1H-pyrrolo[3,2-c]pyridin-3-yl]methyl}-3-(phenylsulfonyl)benzoic acid] | 18
13 | Cc1c(Cc2ccccc2S(=O)(=O)c2ccccc2F)c2c(n1CC(=O)O)CCNC2=O [Example 17, (3-{2-[(2-Fluorophenyl)sulfonyl]benzyl}-2-methyl-4-oxo-4,5,6,7-tetrahydro-1H-pyrrolo[3,2-c]pyridin-1-yl)acetic acid] | 3.6
14 | COC(=O)c1ccc(Cc2c3c(n(CC(=O)O)c2C)CCNC3=O)c(S(=O)(=O)c2ccccc2)c1 [Example 28, {3-[4-(Methoxycarbonyl)-2-(phenylsulfonyl)benzyl]-2-methyl-4-oxo-4,5,6,7-tetrahydro-1H-pyrrolo[3,2-c]pyridin-1-yl}acetic acid] | 11
15 | Cc1c(Cc2ccccc2S(=O)(=O)c2ccccc2)c2c(n1CC(=O)O)CCN(C(C)C(F)(F)F)C2=O (centres unmarked) [Example 71, [2-Methyl-4-oxo-3-[2-(phenylsulfonyl)benzyl]-5-(2,2,2-trifluoro-1-methylethyl)-4,5,6,7-tetrahydro-1H-pyrrolo[3,2-c]pyridin-1-yl]acetic acid] | 5.8
16 | Cc1c(Cc2ccccc2S(=O)(=O)c2cccc(F)c2)c2c(n1CC(=O)O)CCNC2=O [Example 12, (3-{2-[(3-Fluorophenyl)sulfonyl]benzyl}-2-methyl-4-oxo-4,5,6,7-tetrahydro-1H-pyrrolo[3,2-c]pyridin-1-yl)acetic acid] | 6.2
17 | Cc1c(Cc2ccccc2S(=O)(=O)c2ccccc2)c2c(=O)n(C)ccc2n1CC(=O)O [Example 75, {2,5-Dimethyl-4-oxo-3-[2-(phenylsulfonyl)benzyl]-4,5-dihydro-1H-pyrrolo[3,2-c]pyridin-1-yl}acetic acid] | 4.9
